Measurements from ChEMBL document CHEMBL1201862, “PubChem BioAssay data set” (2004).
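Interpolation was linear, between the two tested concentrations surrounding the appropriate level; five concentrations were tested over 48 hours in 96-well plates. At the GI50, growth is halved.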 The source made the active and inactive calls. Rule as the data show it: active = GI50 up to about 1.1 µM and inactive = higher.

Legend:
Assay in all cases: inhibition of tumour cell growth, NCI panel, 48 h
NCI-H23 = tested on: NCI-H23
RXF 393 = tested on: RXF 393
NCI-H522 = tested on: NCI-H522
HOP-62 = tested on: HOP-62
HOP-92 = tested on: HOP-92
SK-MEL-28 = tested on: SK-MEL-28
SK-MEL-5 = tested on: SK-MEL-5
UACC-257 = tested on: UACC-257
UACC-62 = tested on: UACC-62
SW-620 = tested on: SW-620
RPMI-8226 = tested on: RPMI-8226
SK-OV-3 = tested on: SK-OV-3
PC-3 = tested on: PC-3
OVCAR-8 = tested on: OVCAR-8
MCF7 = tested on: MCF7
HT-29 = tested on: HT-29
SF-295 = tested on: SF-295
HCT-116 = tested on: HCT-116
OVCAR-4 = tested on: OVCAR-4
BT-549 = tested on: BT-549

Row | Structure (SMILES) | GI50 (NCI-H23) | GI50 (RXF 393) | GI50 (NCI-H522) | GI50 (HOP-62) | GI50 (HOP-92) | GI50 (SK-MEL-28) | GI50 (SK-MEL-5) | GI50 (UACC-257) | GI50 (UACC-62) | GI50 (SW-620) | GI50 (RPMI-8226) | GI50 (SK-OV-3) | GI50 (PC-3) | GI50 (OVCAR-8) | GI50 (MCF7) | GI50 (HT-29) | GI50 (SF-295) | GI50 (HCT-116) | GI50 (OVCAR-4) | GI50 (BT-549)
1 | CCC(/C=C/c1ccccc1)=N\Nc1ccc(Cl)c(Cl)c1 | 30.9 µM (inactive) | 26.7 µM (inactive) | 18.5 µM (inactive) | 41.9 µM (inactive) | 13.6 µM (inactive) | 48.1 µM (inactive) | 13.8 µM (inactive) | 31.6 µM (inactive) | 13.9 µM (inactive) | 33 µM (inactive) | 19.1 µM (inactive) | 27.4 µM (inactive) | 55.6 µM (inactive) | 16 µM (inactive) | 28.7 µM (inactive) | 35.8 µM (inactive) | 34.7 µM (inactive) | 23.7 µM (inactive) | – | –
2 | O=C(Nc1cnc(O)nc1O)C(Cl)Cl | > 100 µM (inactive) | > 100 µM (inactive) | > 100 µM (inactive) | > 100 µM (inactive) | > 100 µM (inactive) | > 100 µM (inactive) | > 100 µM (inactive) | > 100 µM (inactive) | > 100 µM (inactive) | > 100 µM (inactive) | > 100 µM (inactive) | > 100 µM (inactive) | > 100 µM (inactive) | > 100 µM (inactive) | > 100 µM (inactive) | > 100 µM (inactive) | > 100 µM (inactive) | > 100 µM (inactive) | > 100 µM (inactive) | –
3 | CCOC(CN(C)C(=S)Nc1cccc2ccccc12)OCC | > 10 µM (inactive) | > 10 µM (inactive) | > 10 µM (inactive) | > 10 µM (inactive) | 5.51 µM (inactive) | > 10 µM (inactive) | > 10 µM (inactive) | > 10 µM (inactive) | > 10 µM (inactive) | > 10 µM (inactive) | > 10 µM (inactive) | > 10 µM (inactive) | > 10 µM (inactive) | > 10 µM (inactive) | > 10 µM (inactive) | > 10 µM (inactive) | > 10 µM (inactive) | > 10 µM (inactive) | > 10 µM (inactive) | –
4 | COC1=CC(=O)c2c(cc(COP(N)(=O)N(CCBr)CCBr)n2C)C1=O (configuration not stated) | < 0.01 µM (active) | 0.0719 µM (active) | < 0.01 µM (active) | – | – | 1.56 µM (inactive) | 0.418 µM (active) | 1.2 µM (inactive) | < 0.01 µM (active) | < 0.01 µM (active) | < 0.01 µM (active) | 0.0137 µM (active) | 1.11 µM (active) | < 0.01 µM (active) | < 0.01 µM (active) | 0.012 µM (active) | < 0.01 µM (active) | < 0.01 µM (active) | 1.66 µM (inactive) | –
5 | CCN(CC)CCCNc1nc(=O)[nH]c(C)c1C(=O)Nc1c2ccccc2nc2ccccc12 | 7.53 µM (inactive) | 27 µM (inactive) | 3.63 µM (inactive) | 24.8 µM (inactive) | 2.63 µM (inactive) | 12.3 µM (inactive) | 10.8 µM (inactive) | 15.6 µM (inactive) | 6.32 µM (inactive) | 21.4 µM (inactive) | 5.9 µM (inactive) | 10.8 µM (inactive) | 17.1 µM (inactive) | 21.7 µM (inactive) | 7.78 µM (inactive) | 7.41 µM (inactive) | 5.97 µM (inactive) | 5.41 µM (inactive) | 3.96 µM (inactive) | –
6 | CC(=O)O[C@H]1C(=O)[C@@]2(C)C(C(OC(=O)c3ccccc3)[C@]3(O)CC(OC(=O)C(O)C(NC(=O)c4ccccc4)c4cccc(Cl)c4)C(C)=C1C3(C)C)[C@]1(OC(C)=O)CO[C@@H]1C[C@@H]2O (some centres not stated) | 4.39 µM (inactive) | – | 3.18 µM (inactive) | 7.01 µM (inactive) | – | – | 5.94 µM (inactive) | 9.46 µM (inactive) | 2.33 µM (inactive) | 6.47 µM (inactive) | 2.21 µM (inactive) | > 10 µM (inactive) | 7.11 µM (inactive) | 5.92 µM (inactive) | 3.06 µM (inactive) | 2.46 µM (inactive) | > 10 µM (inactive) | 2.88 µM (inactive) | > 10 µM (inactive) | > 10 µM (inactive)
7 | CNc1nc(OC)c2c(n1)n(C)c[n+]2C [HETEROMINE B] | > 100 µM (inactive) | > 100 µM (inactive) | 31.7 µM (inactive) | > 100 µM (inactive) | 41.2 µM (inactive) | > 100 µM (inactive) | > 100 µM (inactive) | > 100 µM (inactive) | > 100 µM (inactive) | > 100 µM (inactive) | > 100 µM (inactive) | > 100 µM (inactive) | > 100 µM (inactive) | > 100 µM (inactive) | – | > 100 µM (inactive) | > 100 µM (inactive) | > 100 µM (inactive) | – | > 100 µM (inactive)
8 | CSc1nc(-c2ccccc2)c2c(n1)-c1ccccc1CC2 | > 100 µM (inactive) | 34.4 µM (inactive) | > 100 µM (inactive) | > 100 µM (inactive) | > 100 µM (inactive) | > 100 µM (inactive) | > 100 µM (inactive) | > 100 µM (inactive) | > 100 µM (inactive) | > 100 µM (inactive) | > 100 µM (inactive) | > 100 µM (inactive) | – | > 100 µM (inactive) | – | 52 µM (inactive) | > 100 µM (inactive) | > 100 µM (inactive) | > 100 µM (inactive) | –
9 | O=C1C2C(C(=O)N1O)N(Cc1ccccc1)C(=O)N2Cc1ccccc1 (configuration not stated) | > 100 µM (inactive) | > 100 µM (inactive) | > 100 µM (inactive) | > 100 µM (inactive) | > 100 µM (inactive) | > 100 µM (inactive) | > 100 µM (inactive) | > 100 µM (inactive) | > 100 µM (inactive) | > 100 µM (inactive) | > 100 µM (inactive) | > 100 µM (inactive) | – | > 100 µM (inactive) | – | > 100 µM (inactive) | > 100 µM (inactive) | > 100 µM (inactive) | > 100 µM (inactive) | –
10 | CN(CCCNC(=O)c1cn(C)c2c1ccc1ccccc12)CCCNC(=O)c1cn(C)c2c1ccc1ccccc12 | 1.51 µM (inactive) | 1.65 µM (inactive) | – | 1.61 µM (inactive) | 1.42 µM (inactive) | 1.69 µM (inactive) | 1.65 µM (inactive) | 1.58 µM (inactive) | 2.06 µM (inactive) | 2.59 µM (inactive) | – | – | 1.51 µM (inactive) | – | – | 1.55 µM (inactive) | 4.6 µM (inactive) | 1.49 µM (inactive) | 9.35 µM (inactive) | –
11 | O=C(Sc1sc(=S)sc1SC(=O)c1ccccc1)c1ccccc1 | > 100 µM (inactive) | > 100 µM (inactive) | > 100 µM (inactive) | 25.4 µM (inactive) | 50.6 µM (inactive) | > 100 µM (inactive) | > 100 µM (inactive) | > 100 µM (inactive) | 21.9 µM (inactive) | > 100 µM (inactive) | > 100 µM (inactive) | 22.9 µM (inactive) | – | 83.4 µM (inactive) | – | 36.6 µM (inactive) | 33.7 µM (inactive) | 71.1 µM (inactive) | > 100 µM (inactive) | –
12 | c1ccc2cc3c(cc2c1)OP1(Oc2cccc4cccnc24)(O3)Oc2cc3ccccc3cc2O1 | 2.71 µM (inactive) | 7.29 µM (inactive) | 2.39 µM (inactive) | 21 µM (inactive) | 3.57 µM (inactive) | 15.8 µM (inactive) | 3.17 µM (inactive) | 2.69 µM (inactive) | 3.05 µM (inactive) | 2.81 µM (inactive) | 1.07 µM (active) | 34.7 µM (inactive) | – | 3.56 µM (inactive) | 1.13 µM (inactive) | 2.9 µM (inactive) | 4.67 µM (inactive) | 3.24 µM (inactive) | 3.61 µM (inactive) | –
13 | O=C1CN(c2cccc(C(F)(F)F)c2)C(=O)CN1CCN1CC(=O)N(c2cccc(C(F)(F)F)c2)CC1=O | – | – | > 100 µM (inactive) | > 100 µM (inactive) | – | > 100 µM (inactive) | > 100 µM (inactive) | > 100 µM (inactive) | – | > 100 µM (inactive) | > 100 µM (inactive) | > 100 µM (inactive) | > 100 µM (inactive) | > 100 µM (inactive) | > 100 µM (inactive) | > 100 µM (inactive) | > 100 µM (inactive) | > 100 µM (inactive) | > 100 µM (inactive) | –
14 | N#Cc1ccc(/C=[N+](/C=c2ccc(=C=[N-])cc2)N(CCO)C2=NCCN2)cc1 | > 100 µM (inactive) | – | 71 µM (inactive) | > 100 µM (inactive) | – | – | > 100 µM (inactive) | > 100 µM (inactive) | > 100 µM (inactive) | > 100 µM (inactive) | – | > 100 µM (inactive) | > 100 µM (inactive) | > 100 µM (inactive) | > 100 µM (inactive) | > 100 µM (inactive) | > 100 µM (inactive) | > 100 µM (inactive) | > 100 µM (inactive) | > 100 µM (inactive)
15 | O=c1oc2cc(O)ccc2c2oc3cc(O)ccc3c12 [COUMESTROL] | 58.5 µM (inactive) | 54.1 µM (inactive) | 6.46 µM (inactive) | 16 µM (inactive) | > 118 µM (inactive) | > 125 µM (inactive) | 9.91 µM (inactive) | 87.9 µM (inactive) | 71.6 µM (inactive) | 59 µM (inactive) | 45.8 µM (inactive) | 42.1 µM (inactive) | – | 70 µM (inactive) | 96.8 µM (inactive) | 49 µM (inactive) | 76 µM (inactive) | 32.7 µM (inactive) | 83.9 µM (inactive) | –
16 | COC(=O)c1nc(Cl)nc(Cl)c1Cl | 44.7 µM (inactive) | 14.4 µM (inactive) | 19.3 µM (inactive) | 30.2 µM (inactive) | 19.4 µM (inactive) | 21.1 µM (inactive) | 18.3 µM (inactive) | – | > 10 µM (inactive) | 16.2 µM (inactive) | 1.29 µM (inactive) | 41.9 µM (inactive) | 14.4 µM (inactive) | 21 µM (inactive) | 28.2 µM (inactive) | 22.5 µM (inactive) | 42.3 µM (inactive) | 18.2 µM (inactive) | 19.5 µM (inactive) | –
